Experimental data as given in patent US20170066779A1, “SOLID FORMS OF A FLAVIVIRIDAE VIRUS INHIBITOR COMPOUND AND SALTS THEREOF” (IDENIX Pharmaceuticals LLC, priority 2014, published 2017).

Columns and labels:
[1] = Gravimetric vapor sorption (GVS); type: physicochemical; conditions: for XRPD post GVS / XRPD after GVS: solid form after the sorption cycle
Procedure: Sorption isotherms were obtained using a SMS DVS Intrinsic moisture sorption analyzer, controlled by DVS Intrinsic Control software v1.0.0.30. The sample temperature was maintained at 25° C. by the instrument controls. The humidity was controlled by mixing streams of dry and wet nitrogen, with a total flow rate of 200 mL/min. The relative humidity (RH) was measured by a calibrated Rotronic probe (dynamic range of 1.0-100% RH), located near the sample. The weight change, (mass relaxation) of the sample as a function of % RH was constantly monitored by the microbalance (accuracy ±0.005 mg). Typically 5-20 mg of sample was placed in a tared mesh stainless steel basket under ambient conditions. The sample was loaded and unloaded at 40% RH and 25° C. (typical room conditions). A moisture sorption isotherm was performed as outlined below (2 scans giving 1 complete cycle). The standard isotherm was performed at 25° C. at 10% RH intervals over a 0-90% RH range. Data analysis was undertaken in Microsoft Excel using DVS Analysis Suite v6.0.0.7.

[2] = Solid-state storage stability at elevated temperature and humidity (XRPD); type: physicochemical
Procedure: One hundred milligrams of the amorphous form of the compound of Formula I was solubilized into 5 volumes of ethyl acetate or acetone under constant stirring at respectively 70° C. or 50° C. (experiment performed in duplicate). […] Systems were then allowed to equilibrate at initial temperature for 1 hour (crashing out reported in all cases). Some samples were then filtered at respectively 70° C. or 50° C. Other samples were cooled to 0° C. at 0.1° C./min. Suspensions were observed after 1 hour slurrying at 0° C. Ten volumes of solvent were added to each sample and the systems were allowed to equilibrate at 0° C. for 1 hour. One aliquot of each condition was filtered under reduced pressure, dried for 16 hours at 70° C. and 3 mbar and characterized by XRPD, ^1H-NMR and HPLC (Table 6).
Ca. 0.5 g of the compound of Formula I was weighed in a 10 mL vial, 15 vol. of IPAc were added. The suspension was heated to 50° C., 2.5 eq of acid added (from a stock solution 1 M in THF) and then cooled to 5° C. at 0.1° C. min^−1. Suspension was filtered with vacuum and allowed to dry under these conditions for 4 h. Samples were analyzed by XRPD to check the conversion and then they were dried under vacuum at 30° C. for 20 h. […] The suspension was heated to 50° C. and additional 0.5 eq of acid added from a stock solution 1 M in THF. The suspension was then cooled to 5° C. at 0.1° C. min^−1. The solid was filtered with vacuum and allowed to dry under these conditions for 4 h. The solid was analyzed by XRPD to check the conversion and then it was dried under vacuum at 30° C. for 20 h.

Caco-2 cell model = experiment: Permeability in the 3-day Caco-2 cell model; type: in vitro ADME
[3] = Thermodynamic aqueous solubility; type: physicochemical; conditions: for thermodynamic aqueous solubility, rank order: solubility decreases in the printed order
Procedure: The suspension was equilibrated at 25° C. for 24 hours then the pH was measured. The suspension was then filtered through a glass fibre C filter. The filtrate was then diluted by an appropriate factor, e.g. 101. Quantitation was by HPLC with reference to a standard solution of approximately 0.25 mg/mL in DMSO. Different volumes of the standard, diluted and undiluted sample solutions were injected.

[4] = Absolute oral bioavailability in rats; conditions: rat, in vivo, dosed as a solution in 0.5% TPGS/37.5% PEG200/60% PBS, 10 mg/kg PO and 2 mg/kg IV
Procedure: The desired route of administration for the compound of Formula I is oral. The absolute oral bioavailability in rats was determined to be approximately 4-8% when dosed as a solution in 0.5% TPGS/37.5% PEG200/60% PBS. The doses were 10 mg/kg PO and 2 mg/kg IV.

P-gp = molecular target: T1, P-gp (Homo sapiens, UniProt P08183); experiment: P-gp substrate assessment (BA/AB transport ratio, with or without cyclosporine A); type: in vitro ADME
T1 construct: endogenous in cells; host or cells: Caco-2

[5] = Half-life in human hepatocytes; type: in vitro ADME
Procedure: Furthermore, the half-life in human hepatocytes was in the mid/long range of >8 hours for the compound of Formula I. Consequently, rapid hepatic clearance is unlikely to contribute to low oral bioavailability.

T1 sequence (P08183 whole entry): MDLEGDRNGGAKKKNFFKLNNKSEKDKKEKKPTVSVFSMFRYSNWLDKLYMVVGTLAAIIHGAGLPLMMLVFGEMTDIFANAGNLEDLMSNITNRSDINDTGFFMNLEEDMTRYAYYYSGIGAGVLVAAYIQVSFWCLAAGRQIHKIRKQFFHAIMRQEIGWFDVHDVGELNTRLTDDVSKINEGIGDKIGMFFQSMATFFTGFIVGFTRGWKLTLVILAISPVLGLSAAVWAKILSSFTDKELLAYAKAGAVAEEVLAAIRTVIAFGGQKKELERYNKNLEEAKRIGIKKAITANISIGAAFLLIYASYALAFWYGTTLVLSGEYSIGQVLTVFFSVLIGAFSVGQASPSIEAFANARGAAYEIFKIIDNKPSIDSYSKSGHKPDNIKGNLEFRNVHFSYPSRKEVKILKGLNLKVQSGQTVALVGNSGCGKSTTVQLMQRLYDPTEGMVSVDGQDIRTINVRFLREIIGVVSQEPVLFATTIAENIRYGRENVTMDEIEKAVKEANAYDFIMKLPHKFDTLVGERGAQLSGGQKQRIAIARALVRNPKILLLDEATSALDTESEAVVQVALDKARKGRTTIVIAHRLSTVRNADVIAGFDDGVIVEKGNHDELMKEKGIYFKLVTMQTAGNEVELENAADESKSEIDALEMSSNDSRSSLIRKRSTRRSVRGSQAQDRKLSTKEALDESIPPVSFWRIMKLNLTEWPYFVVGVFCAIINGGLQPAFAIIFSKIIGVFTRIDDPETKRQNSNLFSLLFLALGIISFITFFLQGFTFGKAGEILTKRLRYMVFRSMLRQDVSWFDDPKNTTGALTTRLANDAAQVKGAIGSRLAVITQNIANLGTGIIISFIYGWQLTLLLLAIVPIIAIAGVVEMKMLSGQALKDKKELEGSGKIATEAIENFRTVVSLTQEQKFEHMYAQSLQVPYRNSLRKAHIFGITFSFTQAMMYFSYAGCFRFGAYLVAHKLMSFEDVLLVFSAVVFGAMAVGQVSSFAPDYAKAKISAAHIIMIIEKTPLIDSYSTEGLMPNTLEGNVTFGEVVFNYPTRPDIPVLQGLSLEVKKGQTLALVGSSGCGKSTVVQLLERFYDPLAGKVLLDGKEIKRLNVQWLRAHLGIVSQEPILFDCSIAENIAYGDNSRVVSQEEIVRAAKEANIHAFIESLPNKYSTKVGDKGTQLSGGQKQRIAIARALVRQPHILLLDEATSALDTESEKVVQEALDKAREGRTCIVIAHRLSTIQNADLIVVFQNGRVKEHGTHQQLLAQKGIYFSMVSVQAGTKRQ

Molecule: COC(=O)N[C@H](C(=O)N1CCC[C@H]1c1nc2ccc(-c3csc4c(-c5ccc(-c6cnc([C@@H]7CCCN7C(=O)[C@H](NC(=O)OC)c7ccccc7)[nH]6)cc5)csc34)cc2[nH]1)C(C)C [Form A, methyl N-{(1R)-2-[(2S)-2-{5-[4-(6-{2-[(2S)-1-{(2S)-2-[(methoxycarbonyl)amino]-3-methylbutanoyl}pyrrolidin-2-yl]-3H-benzimidazol-5-yl}thieno[3,2-b]thiophen-3-yl)phenyl]-1H-imidazol-2-yl}pyrrolidin-1-yl]-2-oxo-1-phenylethyl}carbamate]
- GVS weight uptake at 90% RH ([1]; 25° C., 90% RH): 1.16 wt %
- XRPD post GVS / XRPD after GVS [1]: Form A
- Stability 25° C./92% RH (XRPD after 11 days) ([2]; 25° C./92% RH, 11 days): Form A
- Stability 40° C./75% RH (XRPD after 11 days) ([2]; 40° C./75% RH, 11 days): Form A
- effect of GVS analysis and storage at elevated temperature and humidity on the crystals ([2]; eleven days, recrystallized 100 mg scale samples): remained as Form A

Molecule: COC(=O)N[C@H](C(=O)N1CCC[C@H]1c1nc2ccc(-c3csc4c(-c5ccc(-c6cnc([C@@H]7CCCN7C(=O)[C@H](NC(=O)OC)c7ccccc7)[nH]6)cc5)csc34)cc2[nH]1)C(C)C [compound of Formula I, methyl N-{(1R)-2-[(2S)-2-{5-[4-(6-{2-[(2S)-1-{(2S)-2-[(methoxycarbonyl)amino]-3-methylbutanoyl}pyrrolidin-2-yl]-3H-benzimidazol-5-yl}thieno[3,2-b]thiophen-3-yl)phenyl]-1H-imidazol-2-yl}pyrrolidin-1-yl]-2-oxo-1-phenylethyl}carbamate]
- permeability (Caco-2 cell model): low permeability
- BCS classification ([3]; based on poor aqueous solubility and low Caco-2 permeability): BCS Class IV
- solubility ([3]; poor aqueous solubility, basis of BCS classification): < 500 µg/mL
- thermodynamic aqueous solubility, rank order [3]: HCl>H2SO4>tosylate=free base form
- bioavailability [4]: 4 to 8%
- effect from addition of P-gp inhibitor cyclosporine A (P-gp): absence of effect
- P-gp substrate (P-gp; deduced from BA/AB transport ratio and cyclosporine A addition): not a P-gp substrate
- efflux ratio (P-gp; human, Caco-2): < 1
- half-life [5]: > 8 h

Molecule: H2SO4
- GVS wt uptake between 0-90% RH [1]: RH 25.5% wt
- GVS wt uptake between 40-75% RH ([1]; 40-75% RH): 6.12% wt uptake
- GVS wt uptake between 75-90% RH ([1]; 75-90% RH): RH 14.5% wt
- XRPD post GVS / XRPD after GVS [1]: Amorphous
- Stability 25° C./92% RH (XRPD after 7 days) ([2]; 25° C./92% RH): Amorphous
- Stability 40° C./75% RH (XRPD after 7 days) ([2]; 40° C./75% RH): Amorphous

Molecule: Tosylate
- pH of the equilibrated suspension in the solubility determination ([3]; measured after equilibration at 25° C. for 24 hours): 1.52
- Aqueous Solubility ([3]; scaled-up amorphous salts, final pH printed in the same cell): 0.00 mgmL^−1
- thermodynamic aqueous solubility, rank order [3]: HCl>H2SO4>tosylate=free base form
- GVS wt uptake between 0-90% RH [1]: 9.5% wt uptake
- XRPD post GVS / XRPD after GVS [1]: Amorphous
- Stability 25° C./92% RH (XRPD after 7 days) ([2]; 25° C./92% RH): Amorphous
- Stability 40° C./75% RH (XRPD after 7 days) ([2]; 40° C./75% RH): Amorphous
